Columns and labels:
[1] = test system: IMQ psoriasis model; assay: IMQ (imiquimod)-induced psoriasis model; assay type: in vivo, BALB/c mice; details: 100 mg/kg, BID, Mean ± SD, n = 7
Method: Male BALB/c mice, aged 6-8 weeks, were randomly divided into 9 groups after 1 week of acclimatization: blank control group, imiquimod model group (IMQ group, corresponding to the model groups in FIGS. 1 and 2), clobetasol propionate cream group (CLO group), TYKI (BMS-986165) group, IRAK4 protein degrader KT-474 (from patent WO2020113233) group (100 mg/kg), and the compound of the present disclosure (at an appropriate dose), with 6-7 mice in each group. One day before modeling, the hair on the backs of the mice was removed with depilatory cream, with a depilated area of 2×2 cm^2. On the day of modeling, IMQ cream was used for modeling, and the corresponding drugs were administered intragastrically for treatment. The compound of the present disclosure (at an appropriate dose) was administered intragastrically once daily, and IMQ cream was applied to the hairless area on the back and left ear of mice 2 h after the first administration. […] The blank group and the IMQ group were administered with vehicle intragastrically twice daily (in the morning and evening), with an 8-h interval between the two intragastric administrations. At 2 h after the first intragastric administration, vaseline and IMQ cream were applied topically to the depilated back and ears of the mice, respectively. The dosage of IMQ cream administered to the depilated area on the back and the left ear was 80 mg and 10 mg, respectively, and the mice in each group were administered the cream for 5 consecutive days.
Reference was made to the Psoriasis Area and Severity Index (PASI) scoring criteria. The psoriasis, erythema, and thickness of skin lesions on the back were scored from 0 to 4 every morning from day 1 of modeling, with the scoring criteria as shown in Table 28. The 3 were added up to obtain a total score, i.e., a total PASI score. The ear thickness of the left ear of the mouse was measured using a digital vernier caliper three times every morning from day 1 of modeling, to obtain a mean value.

[2] = test system: DSS-induced enteritis model; assay: DSS-induced enteritis (colitis) model; assay type: in vivo, mice; details: po, Model 10.33 ± 1.11, Mean ± SD, n = 7
Source text: The experimental mice were pre-acclimatized in the animal facility for one week; at the beginning of the experiment, the mice were given medication intragastrically daily according to their body weight. After the completion of intragastric administration in each group, mice had direct access to water bottles for free drinking. The blank group received normal water, while the other groups received pre-prepared DSS water. Each afternoon, the mice's abdomens were massaged to stimulate defecation, and one fecal pellet was collected onto a white porcelain plate. Fecal consistency was judged and recorded according to Table 30. The fecal occult blood qualitative test kit (Yuanye Biotechnology, #R24187-300T) was used to test for occult blood in feces and the results were interpreted according to Table 31.

[3] = test system: CIA-induced rheumatoid arthritis model; assay: CIA-induced rheumatoid arthritis model; assay type: in vivo, DBA/1J mice; details: BID, Model 12.31 ± 2.97, Mean ± SD, n = 7
Method: 1. DBA/1J mice, male, SPF grade, were pre-acclimatized in the animal facility for one week. 2. On day 1, for the primary immunization, 2 mg/mL bovine type II collagen was mixed thoroughly with an equal volume of complete Freund's adjuvant on ice using a homogenizer until fully emulsified. 100 μL of the collagen emulsion (final concentration 1 mg/mL) was intradermally injected at 2 cm from the base of the mouse tail. Medical iodophor was used to disinfect the tail after injection to prevent tail necrosis, which was conducted for 3 consecutive days. 3. On day 21, bovine type II collagen solution was thoroughly mixed and emulsified with an equal volume of Freund's incomplete adjuvant, using the same method as the primary immunization. 4. On day 26, LPS was administered intraperitoneally at a dose of 50 μg/animal to induce disease. 5. On day 28, the affected mice were scored according to Table 33 and the diameter of their ankle joints was measured. Mice were randomly grouped and treated with medication based on their scores and ankle diameter.

[4] = test system: R848-induced IL-6 secretion in human peripheral blood mononuclear cells (PBMCs); assay: Inhibition of R848-induced IL-6 secretion in human PBMCs (IL-6 ELISA); assay type: cell-based; details: PBMC, R848 2.5 μg/mL, 20 h pre-incubation, 24 h stimulation
Method: This experiment was carried out in RPMI 1640 medium containing 10% FBS and 1% penicillin/streptomycin, with each of the compounds at an initial test concentration of 1 μM. The compound was dissolved in DMSO to prepare a stock solution, which was serially diluted into a series of working solutions with a 4-fold concentration gradient using the culture medium and then added to a 96-well plate at 10 μL per well. PBMCs (Batch No.: P122101102C; Milecell Biotechnology Inc.) were counted and diluted to a cell concentration of 1.25×10^6 cells/mL, and then added to the aforementioned compound-containing 96-well plate at 160 μL per well. The system was mixed well and incubated in a 5% CO2 incubator at 37° C. for 20 h. Then 10 μL of R848 (final concentration: 2.5 μg/mL) was added, and the culture was continued for 24 h in a 5% CO2 incubator at 37° C. After incubation, the 96-well plate was centrifuged at 2000 rpm for 4 min. The supernatant was collected and diluted 120-fold, then detected using an IL-6 ELISA kit. The OD450 values were read, and converted to IL-6 concentrations based on a standard curve.

[5] = test system: LPS/IL-1β-induced IL-6 secretion in human peripheral blood mononuclear cells (PBMCs); assay: Inhibition of LPS/IL-1β-induced IL-6 secretion in human PBMCs (IL-6 ELISA); assay type: cell-based; details: PBMC, LPS 10 ng/mL + IL-1β 20 ng/mL, 24 h pre-incubation, 20 h stimulation
Outline: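 PBMCs preincubated 24 h at 37 °C with compounds (5-fold dilutions from 1 μM) in RPMI/10% FBS, then stimulated 20 h with LPS 10 ng/mL plus IL-1β 20 ng/mL (final). IL-6 in 200-fold diluted supernatant measured by ELISA at OD450 against a standard curve; IC50 from dose-response fitting.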

[6] = biological target: T1, IRAK4 (Homo sapiens, UniProt Q9NWZ3); assay: IRAK4 protein degradation in THP1 cells (Western blot); assay type: cell-based; details: THP-1 cells, 24 h
T1 construct: Effect of the Compounds on IRAK4 Protein Degradation in THP1 Cells; endogenous in cells; host or cells: THP-1 cells
T1 sequence (Q9NWZ3 1-460): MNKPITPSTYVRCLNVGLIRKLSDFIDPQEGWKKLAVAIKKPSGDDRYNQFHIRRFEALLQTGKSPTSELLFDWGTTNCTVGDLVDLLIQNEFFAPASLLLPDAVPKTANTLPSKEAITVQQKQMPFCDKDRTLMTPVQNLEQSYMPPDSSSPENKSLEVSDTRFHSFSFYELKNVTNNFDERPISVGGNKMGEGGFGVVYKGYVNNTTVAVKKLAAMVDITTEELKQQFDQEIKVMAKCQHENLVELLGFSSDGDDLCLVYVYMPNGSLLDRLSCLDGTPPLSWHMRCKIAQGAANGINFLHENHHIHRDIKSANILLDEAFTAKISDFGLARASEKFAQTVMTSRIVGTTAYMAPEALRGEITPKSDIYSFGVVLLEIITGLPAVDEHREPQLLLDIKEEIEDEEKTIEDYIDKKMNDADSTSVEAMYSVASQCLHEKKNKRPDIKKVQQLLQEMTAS
Outline: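 THP-1 cells (2×10^5/well) were treated with 5-fold serial compound dilutions for 24 h at 37 °C, then lysed with proteasome/phosphatase inhibitors. IRAK4 was detected by Western blot with chemiluminescence and semi-quantified by densitometry. DC50 came from the concentration–response.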

[7] = Metabolic stability in human liver microsome; assay type: in vitro ADME; details: NADPH, 60 min; for half-life at 1 µM: liver microsomes, read-out: Human liver microsome (t1/2, min)
Method: Clean incubation plates T60 and NCF60 were preheated at 37° C. for 10 min. Liver microsomes were diluted to a concentration of 0.56 mg/mL with 100 mM phosphate buffer, and 445 μL of the microsome working solution (0.56 mg/mL) was transferred to the preheated incubation plates T60 and NCF60, followed by incubation of the plates T60 and NCF60 with continuous shaking at 37° C. for 10 min. After incubation, 54 μL of liver microsomes were transferred to a blank plate, 6 μL of NAPDH cofactor was added to the blank plate, and then 180 μL of quenching solution was added to the blank plate. 5 μL of the compound working solution (100 μM) was added to the microsome-containing incubation plates T60 and NCF60, and mixed thoroughly 3 times. For plate NCF60, 50 μL of buffer was added and the system was mixed thoroughly 3 times before timing was started, and the plate was incubated with shaking at 37° C. for 60 min. For the quenching plate, 180 μL of quenching solution and 6 μL of NADPH cofactor were added, and the plate was ensured to be cooled to prevent evaporation. For the T60 plate, the mixture was thoroughly mixed 3 times, and 54 μL of the mixture was immediately transferred to the quenching plate at the time point of 0 min. Then 44 μL of the NAPDH cofactor was added to the incubation plate (T60). Timing was started, and the plate was incubated with shaking at 37° C. for 60 min. At the time points of 5, 15, 30, 45, and 60 min, 180 μL of the quenching solution was added to the quenching plate respectively, mixed once, and 60 μL of sample was continuously transferred from the plate T60 to the quenching plate at each time point. For plate NCF60, after mixing once, 60 μL of the sample was transferred from incubation plate NCF60 to the quenching plate containing quenching solution at the 60-min time point. All sampling plates were shaken for 10 min, then centrifuged at 4000 rpm at 4° C. for 20 min. 80 μL of the supernatant was transferred to 240 μL of HPLC water, and mixed using a plate shaker for 10 min. Each bioanalytical plate was sealed and shaken for 10 min before LC-MS/MS analysis.

DC50 [6] [nM] | half-life at 1 µM [7] [min] | Compound | IC50 [4] [nM] | IC50 [5] [nM] | other results
– | – | Cn1c(=O)n(C2CCC(=O)NC2=O)c2cccc(C#CCOC3CCN(C[C@H]4CC[C@H](n5cc(NC(=O)c6cnn7ccc(N8C[C@H]9C[C@@H]8CO9)nc67)c(C(F)F)n5)CC4)CC3)c21 (stereo partly shown) [KT474, reference compound] | – | – | PASI Score d 6 ([1]; Model 8.85 ± 1.66): 6.93 ± 2.36; ΔSkin Thickness Change (μm) d 6 ([1]; Model 80.95 ± 6.16): 31.90 ± 9.90 μm; DAI Score d 8 ([2]; 100 mpk, BID): 5.71 ± 1.28; DAI Score d 42 ([3]; 100 mg/kg): 11.63 ± 2.55
2.76 | – | CN(C)c1cc2nn([C@H]3CC[C@H](CN4CCC(n5cc6cc(N7CCC(=O)NC7=O)ccc6n5)CC4)CC3)cc2cc1NC(=O)c1cnn2cccnc12 [TM-3] | 3.53 | 0.39 | Human liver microsome (t1/2, min) [7]: 145 min
0.31 | 93.1 | CN(C)c1cc2nn([C@H]3CC[C@H](CN4CC[C@H](n5cc6cc(C7CCC(=O)NC7=O)c(F)cc6n5)[C@H](F)C4)CC3)cc2cc1NC(=O)c1cnn2cccnc12 (stereo partly shown) [TM-132] | 7.83 | 3.52 | –
1.71 | 101 | CN(C)c1cc2nn([C@H]3CC[C@H](CN4CC[C@H](n5cc6cc(F)c(C7CCC(=O)NC7=O)cc6n5)[C@H](F)C4)CC3)cc2cc1NC(=O)c1cnn2cccnc12 (stereo partly shown) [TM-136] | – | 6.63 | –
9.41 | 92.3 | CN(C)c1cc2nn([C@H]3CC[C@H](CN4CC[C@@H](n5cc6cc(F)c(C7CCC(=O)NC7=O)cc6n5)[C@H](F)C4)CC3)cc2cc1NC(=O)c1cnn2cccnc12 (stereo partly shown) [TM-137] | – | 2.4 | –
1.09 | 104 | CN(C)c1cc2nn([C@H]3CC[C@H](CN4CC[C@@H](n5cc6ccc(C7CCC(=O)NC7=O)cc6n5)[C@H](F)C4)CC3)cc2cc1NC(=O)c1cnn2cccnc12 (stereo partly shown) [TM-152] | – | 9.43 | –
8.45 | – | CN(C)c1cc2nn([C@H]3CC[C@H](CN4C[C@@H](F)[C@H](n5cc6c(F)cc(N7CCC(=O)NC7=O)cc6n5)C4)CC3)cc2cc1NC(=O)c1cnn2cccnc12 [TM-221] | 7.1 | 1.88 | DAI Score d 8 ([2]; 3 mpk, QD): 4.43 ± 1.68; DAI Score d 8 ([2]; 10 mpk, QD): 3.00 ± 1.07; DAI Score d 8 ([2]; 30 mpk, QD): 2.57 ± 2.50
– | 138 | CN(C)c1cc2nn([C@H]3CC[C@H](CN4CCC(n5cc6c(F)cc(C7CCC(=O)NC7=O)cc6n5)CC4)CC3)cc2cc1NC(=O)c1cnn2cccnc12 (stereo partly shown) [TM-233] | 3.34 | 0.83 | –
– | – | C[C@@H]1CCN(C(=O)CC#N)C[C@@H]1N(C)c1ncnc2[nH]ccc12 [tofacitinib, Tofacitinib, reference compound] | – | – | DAI Score d 42 ([3]; 30 mg/kg): 10.67 ± 3.13

Source: patent US20260216348A1, “IRAK DEGRADATION AGENT AND USE THEREOF” (Increland, priority 2023, published 2026)
